From a melting point compilation (Tetko et al.; mined from patent text by program, amines drawn as free bases though some values may be those of a salt)

SMILES | melting point [°C]
COc1ccc(/C=C/C(=O)/C=C/c2ccc(OC)c(O)c2)cc1O | 195 to 197
C=Cc1cc(NC(=O)N2CCN(c3cc(C)cc(C)c3)CC2)c(OC)nc1C | 131 to 132
COC(=O)CCc1cc2c(s1)NC(=O)C(C)N=C2c1ccccc1Cl (stereo not given) | 196 to 197
CCC(=O)C(=Cc1cccc(C#N)c1)C(=O)CC | 51 to 52
CCCCCCC(C)(C)c1ccc(C2=CCCN(CC3CC3)C2)c(O)c1 | 118
Nc1nccnc1OCc1cccnc1 | 120 to 122
SCc1cn2ccccc2n1 | 168 to 178
CC(C)(C)OC(=O)NC1(CCOS(C)(=O)=O)CC1 | 88 to 89
CC(C)(C)OC(=O)C(N)c1nc(-c2ncn3c2C2CCN2C(=O)c2cc(F)ccc2-3)no1 (stereo not given) | 147 to 150
CC(C)(C)OC(=O)NN(Cc1cc(F)cc(F)c1)C(N)=O | 129 to 130
O=CC1=C(Br)CC(F)(Br)C=C1 (stereo not given) | 57 to 58
Cc1cc(C)nc(-n2nc(C)nc2N)n1 | 237
C=CCc1cc2c(c(CC=C)c1O)CCC(=O)N2CCCn1cnnc1 | 129 to 132
O=C(Nc1nc(-c2ccccc2)cs1)C(=O)OC1CCCCC1 | 160 to 161
O=C1C2C3C=CC(C3)C2C(=O)N1OS(=O)(=O)CCSC1CCCCC1 (stereo not given) | 96 to 98
Nc1cccc2c1NC(=O)C2 | 248 to 251
CC1=Nc2ccccc2CC(c2cccnc2)N1C (stereo not given) | 145 to 148
Cc1c(-c2cc([N+](=O)[O-])c(F)cc2F)ncnc1C(F)F | 85 to 86
CCOC(=O)C12CCC(=O)N1CC(=O)N2 (stereo not given) | 116
Cc1cccc(Cl)c1CO | 83 to 86
O=C(NC(=O)C(Cl)CCl)Nc1cccc(Cl)c1Cl (stereo not given) | 195 to 196

SMILES | melting point [°C]
FC(F)(F)C=NNc1c(Cl)cc(C(F)(F)F)cc1Cl | 45 to 46
CC(CBr)(CBr)C(=O)O | 60 to 62
O=C(CCS)NC1CCCCC1 | 73.5 to 75.5
C#CCOC(=O)C1C(C)=NC(N2CCCCC2)=C(C(=O)OCC)C1c1cccc([N+](=O)[O-])c1 (stereo not given) | 121
C#CC(CC(=O)O)c1ccc(OC)c(OC2CCCC2)c1 (racemic) | 101 to 102
CCc1cc2c(cc1Cl)C=C(C(=O)O)C(C(F)(F)F)O2 (stereo not given) | 171 to 172
CN1CCN(CC2(O)CC=Cc3ncccc32)CC1 (stereo not given) | 126 to 127
CCOc1cccc(C(C)=O)n1 | 36 to 37
CC(C)N(O)C(=O)Nc1ccc(S(C)(=O)=O)cc1 | 163 to 164
O=C(Nc1nnn[nH]1)c1c[nH]c(=S)n1C1CCc2c(F)cc(F)cc2C1 (stereo not given) | 228 to 230
CCOC(=O)/C(=N\OC(C)(C)C)c1csc(N)n1 | 111 to 112
CC1(C)OC(=O)C(=Cc2ccc(Br)s2)C1=O | 173 to 175
CC(=O)Nc1nc2ccccc2n1-c1nc(N2CCOCC2)nc(N2CCOCC2)n1 | 150 to 153
N#Cc1oc2c(sc3ccccc32)c1O | 174 to 175
Cc1noc(NS(=O)(=O)c2ccc(C(C)C)cc2)c1Br | 130 to 133
CC(C)OC(=O)C1=C2SCC(=CC(=O)Sc3ccccc3)N2CC1 | 216 to 220
CC(C)(C)N1C(=O)c2cc([N+](=O)[O-])cnc2C1=O | 170 to 173
CCCCCC(CCCCC)=NN=C1NC(=O)C(CC(=O)O)S1 (stereo not given) | 134 to 135
C#CC1(O)C=CC2C3CCC4=CC(=O)CC(O)C4C3CCC21CC (stereo not given) | 129 to 130
CC(C)(C)C(=O)C(CSc1ccc(Cl)cc1)n1cncn1 (stereo not given) | 67

Results, then the compound that gave them:

melting point [°C] | SMILES
52.5 to 53 | O[C@@H](COCc1ccccc1)[C@H](OCc1ccccc1)[C@@H](OCc1ccccc1)[C@@H](O)COCc1ccccc1
126 to 129 | CC(N1CCC(Cc2ccccc2)CC1)C(O)(NC(=O)c1ccccc1)c1ccc(N)cc1 (stereo not given)
125 to 126 | Cc1oc(-c2ccc(C(F)(F)F)cc2)nc1COc1cccc(CN(O)C(N)=O)c1
138 to 140 | CCn1cnc(N2CCc3ccccc3CC2)c(C#N)c1=O
135 to 140 | COc1ccc(Nc2cncc(-c3cccc(NC(=O)c4ccccc4)c3)c2)cc1
112 to 115 | O=C(O)CCCCCCN1C(=O)c2ccccc2C1=O
140 to 142 | CS(=O)(=O)c1ccc(-c2c(Cl)c3cccccc-3c2-c2ccccc2)cc1
224 to 225 | Cc1cc2nc(C3(c4ccc(S(N)(=O)=O)cc4)C=C(C(F)(F)F)NN3)sc2cc1F (stereo not given)
126 to 128 | O=C(O)CC(NC(=O)c1ccc2c(c1)CCC(=NNC1=NCCN1)C1=C2CCC1)c1cccnc1 (stereo not given)
152 to 153 | N#Cc1ccnc(Nc2ccc(-n3nc(C(F)(F)F)cc3C(F)(F)F)cc2)c1
312 to 318 | Cc1[nH]cc2c(=O)n(-c3ccc(Cl)cc3)nc-2c1-c1cccc(-c2cccnc2)c1
123 | COc1ccc(Cn2cnc3c(-c4ccco4)nc(C(C)C)nc32)cc1
216 to 217 | CCc1nc2c(N)nc3ccccc3c2n1OC
32 to 34 | N#Cc1cscc1Sc1ccccc1
> 310 | Cc1nc(-c2ccccc2)nc2sc3c(N4CCNCC4)nc(Cl)nc3c12
137 to 138 | CC(C)c1nn(-c2ccc(C(F)(F)F)cn2)cc1CCCCOc1cc(CCC(=O)O)n(-c2ccccc2)n1
72 to 75 | Cn1c2c(c3cc(OCc4ccccc4)ccc31)CC(CCN)C2 (stereo not given)
202 to 203 | Cc1cc(NS(=O)(=O)c2cccs2)c2[nH]c(C3=NCCS3)cc2c1
214 to 215 | CC(=O)Oc1ccc(CCc2ccc(NC(=O)C3=C(O)c4ccccc4SC3)cc2)cc1OC(C)=O
116 | O=C(O)CCCCCNC(=O)OCC1c2ccccc2-c2ccccc21

melting point [°C] | SMILES
137 to 138 | CN(Cc1coc(C=Cc2ccc(C(F)(F)F)cc2)n1)c1ccc(OCCCn2ccnn2)cc1
124 to 126 | O=C(Nc1ccc(Cl)cc1)c1cccc(Cl)c1
68 to 70 | Cc1cc(C)cc(C(=O)c2c(C(C)C)c(=O)[nH]c(=O)n2COCc2ccccc2)c1
115 to 117 | CCOC(=O)C=CC(=O)c1ccc(-c2ccc(F)cc2)cc1
100 to 103 | O=C(NCc1ccccn1)c1cc(OCC(F)(F)F)ccc1OCC(F)(F)F
176 to 178 | COc1cc2onc(C3CCN(c4c(C)[nH]c5ccccc45)CC3)c2cc1OC
181 to 183 | CC(=O)c1cccc(Nc2ccc3ccccc3n2)c1
268 to 270 | COC(=O)c1cc(-c2c(-c3ccccc3)nn3ccccc23)cn(C)c1=O
> 300 | O=C(O)c1cc(-c2ccccc2S(=O)(=O)NCCO)c2ccc3c(-c4ccccc4S(=O)(=O)NCCO)cc(C(=O)O)nc3c2n1
190 | COc1ccc(CN(C(=O)C2CCCc3c(O)cccc32)c2ccc(C(C)C)cc2)c(OC)n1 (stereo not given)
130 to 132 | COc1ccc2c(n1)C1(CO2)C(=O)N(Cc2ccc(Cl)s2)c2ccccc21 (stereo not given)
70 to 75 | CCN(Cc1ccccc1Oc1ccccc1)c1ccc(C(=O)O)nn1
191 to 193 | COc1ccc(Br)c2c1C1C(=O)NC(=O)C1CC2 (stereo not given)
73 to 75 | COC(=O)c1cccc(CN2C(=O)C(CCO)Oc3ccccc32)c1 (stereo not given)
94 to 98 | COC(=O)CCn1nnnc1C1N2C(=O)C(NC(c3ccccc3)(c3ccccc3)c3ccccc3)C2SC1(C)C (stereo not given)
162 to 163 | CCc1ccc(C2COc3c(C)c(C)c(NC(=O)CC(C)(C)C)c(C)c32)cc1 (stereo not given)
177 to 178 | O=C(O)COc1ccc2cc(-c3oc4ccccc4c3C(=O)CC3CCCC3)ccc2c1
136 | CN(C)C1=CC(=O)c2ccccc2OC1
187 to 188 | CCNC(=O)Cc1ccc(C(=O)c2ccc(Cl)cc2)n1C
81 to 82 | CCCCCc1ccc(-c2c(C(C)C)ccc(CO)c2C(C)C)nc1

melting point [°C] | SMILES
179 to 182 | c1ccc2cc(Cc3ncc(-c4ccc5cc(OCc6nnn[nH]6)ccc5c4)o3)ccc2c1
141 to 142 | CCN(CC)C(=O)Oc1c2c(nn1-c1ccc(F)cc1)CCc1cc(F)ccc1-2
155 to 157 | OCCn1nc(-c2ccc(F)cc2)c(-c2ccncc2)c1C1CC1
172 to 174 | CC(C)(C)C(O)(COc1ccc(Cl)cc1)c1cncnc1 (stereo not given)
118 to 119 | COc1cc(CCC(=O)CC(=O)c2ccc(-c3ccccc3)cc2)ccc1O
> 250 | O=C(Oc1ccccc1)N1CCc2[nH]c3c(cnc4cc(Cl)ccc43)c2C1
100 to 101 | Cc1oc(-c2cccc(C#N)c2)nc1CCl
165 to 184 | COc1cc(C(=O)N[C@@H](CCC(=O)O)C(=O)O)ccc1NCCCc1c(N)nc(N)[nH]c1=O
139 to 142 | CCOC(=O)C1=C(C)NC(C)=C(C(=O)OCC)C1c1csc2ccccc12
109 to 111 | O=C(c1ccccc1)C(OCc1ccc(Cl)cc1Cl)n1ccnc1 (stereo not given)
102 | Cc1cc(-n2ccnc2)c2cccc(OCc3c(Cl)ccc(S(=O)(=O)N4CCC[C@H]4C(=O)N4CCN(Cc5cccnc5)CC4)c3Cl)c2n1
78 to 80 | COc1cc(Nc2nccc(-c3cccc(NCc4cccnc4)c3)n2)cc(OC)c1OC
151 to 152 | COc1ccc(C2=NN(c3ccccc3)C(=O)[C@H]3CC=CC[C@@H]23)cc1Cl (relative stereo)
165 to 166 | Cc1oc(-c2cc3ccccc3o2)nc1COc1ccc(CCCC2OC(=O)NC2=O)cc1 (stereo not given)
198 to 200 | COc1ccc(C(=O)Nc2ccc(C(C)(C)C#N)c(-c3cncnc3)c2)cc1OC
251 | Cc1oc(-c2ccc(S(C)(=O)=O)cc2)c(Oc2ccc(Cl)cc2)c(=O)c1Br
90 | CN(C)CCOc1ccccc1CC(=O)N1C[C@@H]2C(=O)CCC(c3ccccc3)(c3ccccc3)[C@@H]2C1 (racemic)
232 to 237 | Nc1ccccc1NC(=O)c1ccc(NC(=O)Cc2ccccc2)cc1
133 to 134 | CCCc1nc(NS(=O)(=O)c2ccc(C(C)(C)C)cc2)c(-c2ccc(C)cc2)c(OCCO)n1
